Measured values reported in PubChem BioAssay AID330 (DTP/NCI, 2004).
Values joined by “and” are separate entries in the source; they are usually repeats but may differ in a detail not shown here. Equal entries are not always repeated. Toxic doses and inconclusive results are not listed.

Tested on: P388 leukemia ip, CD2F1 mice, survival T/C
Test: NCI In Vivo Anticancer Drug Screen. Data for tumor model P388 Leukemia (intraperitoneal) in CD2F1 (CDF1) mice
Details: endpoint: median survival time, higher = longer survival
Procedure, shortened: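 Mice carrying the transplanted tumor received test compound or vehicle. Survival was recorded in each group, and the value is the treated-group measurement divided by that of the vehicle-treated control group.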

[1] = dose: 25.0 mg/kg/injection, schedule: Q01DX009 (ip), vehicle: saline with Tween-80
[2] = dose: 50.0 mg/kg/injection, schedule: Q01DX009 (ip), vehicle: saline with Tween-80
[3] = dose: 100.0 mg/kg/injection, schedule: Q01DX009 (ip), vehicle: saline with Tween-80
[4] = dose: 50.0 mg/kg/injection, schedule: Q01DX009 (ip), vehicle: Klucel (hydroxypropylcellulose) (HPC)
[5] = dose: 100.0 mg/kg/injection, schedule: Q01DX009 (ip), vehicle: Klucel (hydroxypropylcellulose) (HPC)
[6] = dose: 200.0 mg/kg/injection, schedule: Q01DX009 (ip), vehicle: Klucel (hydroxypropylcellulose) (HPC)
[7] = dose: 60.0 mg/kg/injection, schedule: Q01DX005 (ip), vehicle: saline with Tween-80
[8] = dose: 120.0 mg/kg/injection, schedule: Q01DX005 (ip), vehicle: saline with Tween-80
[9] = dose: 50.0 mg/kg/injection, schedule: Q01DX005 (ip), vehicle: saline with Tween-80
[10] = dose: 100.0 mg/kg/injection, schedule: Q01DX005 (ip), vehicle: saline with Tween-80
[11] = dose: 200.0 mg/kg/injection, schedule: Q01DX005 (ip), vehicle: saline with Tween-80
[12] = dose: 50.0 mg/kg/injection, schedule: Q01DX009 (ip), vehicle: saline
[13] = dose: 100.0 mg/kg/injection, schedule: Q01DX009 (ip), vehicle: saline
[14] = dose: 50.0 mg/kg/injection, schedule: Q04DX003 (ip), vehicle: saline with Tween-80
[15] = dose: 100.0 mg/kg/injection, schedule: Q04DX003 (ip), vehicle: saline with Tween-80
[16] = dose: 200.0 mg/kg/injection, schedule: Q04DX003 (ip), vehicle: saline with Tween-80
[17] = dose: 400.0 mg/kg/injection, schedule: Q04DX003 (ip), vehicle: saline with Tween-80

C=C(C)C12CC(COC(=O)c3ccccc3)C34OC5(OC1C3C1OC1(CO)C(O)C1(O)C(OC(=O)c3ccccc3)C(C)C(C(C)CCCCCCC5O)C14)O2 (stereo unspecified)
T/C (dose: 0.8 micrograms/kg/injection, schedule: Q01DX009 (ip), vehicle: Klucel (hydroxypropylcellulose) (HPC)): 104 % of control
T/C (dose: 1.5 micrograms/kg/injection, schedule: Q01DX009 (ip), vehicle: saline): 99 % of control
T/C (dose: 1.6 micrograms/kg/injection, schedule: Q01DX009 (ip), vehicle: Klucel (hydroxypropylcellulose) (HPC)): 110 % of control
T/C (dose: 3.1 micrograms/kg/injection, schedule: Q01DX009 (ip), vehicle: saline): 99 % of control
T/C (dose: 3.2 micrograms/kg/injection, schedule: Q01DX009 (ip), vehicle: Klucel (hydroxypropylcellulose) (HPC)): 102 % of control
T/C (dose: 6.2 micrograms/kg/injection, schedule: Q01DX009 (ip), vehicle: saline): 96 % of control
T/C (dose: 6.3 micrograms/kg/injection, schedule: Q01DX009 (ip), vehicle: Klucel (hydroxypropylcellulose) (HPC)): 98 % of control
T/C (dose: 12.5 micrograms/kg/injection, schedule: Q01DX009 (ip), vehicle: Klucel (hydroxypropylcellulose) (HPC)): 112 % of control
T/C (dose: 12.5 micrograms/kg/injection, schedule: Q01DX009 (ip), vehicle: saline with Tween-80): 89 % of control
T/C (dose: 12.5 micrograms/kg/injection, schedule: Q01DX009 (ip), vehicle: saline): 124 % of control
T/C (dose: 25.0 micrograms/kg/injection, schedule: Q01DX009 (ip), vehicle: Klucel (hydroxypropylcellulose) (HPC)): 102 % of control
T/C (dose: 25.0 micrograms/kg/injection, schedule: Q01DX009 (ip), vehicle: saline with Tween-80): 96 % of control
T/C (dose: 25.0 micrograms/kg/injection, schedule: Q01DX009 (ip), vehicle: saline): 150 % of control
T/C (dose: 50.0 micrograms/kg/injection, schedule: Q01DX009 (ip), vehicle: Klucel (hydroxypropylcellulose) (HPC)): 101 % of control
T/C (dose: 50.0 micrograms/kg/injection, schedule: Q01DX009 (ip), vehicle: saline): 157 % of control and 159 % of control
T/C (dose: 100.0 micrograms/kg/injection, schedule: Q01DX009 (ip), vehicle: Klucel (hydroxypropylcellulose) (HPC)): 104 % of control
T/C (dose: 200.0 micrograms/kg/injection, schedule: Q01DX009 (ip), vehicle: Klucel (hydroxypropylcellulose) (HPC)): 110 % of control

C/C=C/C(=O)Nc1cccc(OC(=O)NC(C)(C)C)c1
T/C [1]: 101 % of control
T/C [2]: 100 % of control
T/C [3]: 97 % of control

CC(=O)CC(C)=NCC(C)N=C(C)CC(C)=O (stereo unspecified)
T/C (dose: 100.0 mg/kg/injection, schedule: Q04DX003 (ip), vehicle: saline): 100 % of control
T/C (dose: 200.0 mg/kg/injection, schedule: Q04DX003 (ip), vehicle: saline): 100 % of control
T/C (dose: 400.0 mg/kg/injection, schedule: Q04DX003 (ip), vehicle: saline): 100 % of control

COCN1C(=O)CN=C(c2ccccc2)c2cc([N+](=O)[O-])ccc21
T/C [4]: 100 % of control
T/C [5]: 101 % of control
T/C [6]: 98 % of control

Cc1cc(Cl)ccc1NC(=O)NC(C)(C)COC(=O)Nc1cccc(Cl)c1
T/C (dose: 15.0 mg/kg/injection, schedule: Q01DX005 (ip), vehicle: saline with Tween-80): 99 % of control
T/C (dose: 30.0 mg/kg/injection, schedule: Q01DX005 (ip), vehicle: saline with Tween-80): 94 % of control
T/C [7]: 90 % of control
T/C [8]: 86 % of control

CNc1ccccc1C(=O)N/N=C/C=C/c1ccccc1
T/C (dose: 12.5 mg/kg/injection, schedule: Q01DX009 (ip), vehicle: saline with Tween-80): 102 % of control
T/C [1]: 105 % of control
T/C [2]: 104 % of control
T/C [3]: 118 % of control

CCCCN(CC(O)c1cc2c(c3ccccc13)CCCC2)c1ccc(OC)cc1 (stereo unspecified)
T/C [9]: 115 % of control
T/C [10]: 101 % of control
T/C [11]: 101 % of control

COc1ccc2[nH]c(=O)c(C#N)c(C)c2c1
T/C (dose: 12.5 mg/kg/injection, schedule: Q01DX005 (ip), vehicle: saline with Tween-80): 95 % of control
T/C (dose: 25.0 mg/kg/injection, schedule: Q01DX005 (ip), vehicle: saline with Tween-80): 91 % of control
T/C [9]: 104 % of control and 91 % of control

CC(=O)OCN(C)N=Nc1ccc(C(C)=O)cc1
T/C (dose: 60.0 mg/kg/injection, schedule: Q01DX005 (ip), vehicle: Klucel (hydroxypropylcellulose) (HPC)): 106 % of control and 114 % of control and 118 % of control
T/C (dose: 120.0 mg/kg/injection, schedule: Q01DX005 (ip), vehicle: Klucel (hydroxypropylcellulose) (HPC)): 100 % of control and 109 % of control and 124 % of control
T/C (dose: 480.0 mg/kg/injection, schedule: Q01DX005 (ip), vehicle: Klucel (hydroxypropylcellulose) (HPC)): 108 % of control

COC(=O)N1C=CC2ON=C(OC)C2C1c1ccccc1 (stereo unspecified)
T/C [9]: 98 % of control
T/C [10]: 98 % of control
T/C [11]: 101 % of control

CCCNC(=S)NN1C2CSC1CS2
T/C [12]: 89 % of control
T/C [13]: 99 % of control

O=C1C=C\C(=C/C=C\C=C2/C=CC(=O)O2)O1
T/C (dose: 50.0 mg/kg/injection, schedule: Q01DX005 (ip), vehicle: Klucel (hydroxypropylcellulose) (HPC)): 93 % of control
T/C (dose: 100.0 mg/kg/injection, schedule: Q01DX005 (ip), vehicle: Klucel (hydroxypropylcellulose) (HPC)): 100 % of control
T/C (dose: 200.0 mg/kg/injection, schedule: Q01DX005 (ip), vehicle: Klucel (hydroxypropylcellulose) (HPC)): 96 % of control

CCCC[NH-].CCCC[NH-].[I][Pt+2][I]
T/C (dose: 0.78 mg/kg/injection, schedule: Q01DX009 (ip), vehicle: other): 103 % of control and 120 % of control

O=C(CNCCCCNCCCNCC(=O)C(O)C(O)C(O)CO)C(O)C(O)C(O)CO (stereo unspecified)
T/C (dose: 30.0 mg/kg/injection, schedule: Q01DX005 (ip), vehicle: saline): 104 % of control
T/C (dose: 60.0 mg/kg/injection, schedule: Q01DX005 (ip), vehicle: saline): 101 % of control

CC1(C)N=C(N)N=C(N)N1c1cccc(CC(=O)Nc2ccccc2)c1
T/C (dose: 12.5 mg/kg/injection, schedule: Q01DX009 (ip), vehicle: saline sonified): 95 % of control
T/C (dose: 12.5 mg/kg/injection, schedule: Q04DX003 (ip), vehicle: saline with Tween-80): 109 % of control
T/C (dose: 25.0 mg/kg/injection, schedule: Q01DX009 (ip), vehicle: saline sonified): 95 % of control
T/C (dose: 25.0 mg/kg/injection, schedule: Q04DX003 (ip), vehicle: saline with Tween-80): 104 % of control
T/C (dose: 50.0 mg/kg/injection, schedule: Q01DX009 (ip), vehicle: saline sonified): 90 % of control
T/C [14]: 109 % of control

COC(=O)/C=C1/Nc2ccc(Cl)cc2C(=O)NC1=O
T/C [7]: 95 % of control
T/C [8]: 93 % of control
T/C (dose: 240.0 mg/kg/injection, schedule: Q01DX005 (ip), vehicle: saline with Tween-80): 93 % of control

C=CCCCCCCCCC(=O)NN1CCOCC1
T/C [15]: 95 % of control
T/C [16]: 100 % of control
T/C [17]: 86 % of control

CC(C)N(C(=S)/N=C1/SCS(=O)(=O)N1Cc1ccccc1)C(C)C
T/C [14]: 97 % of control
T/C [15]: 95 % of control
T/C [16]: 98 % of control

COc1ccc(OC)c(C(N)=O)c1
T/C [4]: 102 % of control
T/C [5]: 102 % of control
T/C [6]: 100 % of control

[N-]=[N+]=Nc1ccc(Nc2c3ccccc3nc3ccccc23)cc1
T/C (dose: 12.5 mg/kg/injection, schedule: Q01DX009 (ip), vehicle: Klucel (hydroxypropylcellulose) (HPC)): 112 % of control and 98 % of control
T/C (dose: 25.0 mg/kg/injection, schedule: Q01DX009 (ip), vehicle: Klucel (hydroxypropylcellulose) (HPC)): 101 % of control and 114 % of control
T/C [4]: 117 % of control and 122 % of control

CN(C)CCCNC(CC#N)CCC#N (stereo unspecified)
T/C [12]: 109 % of control
T/C [13]: 104 % of control
T/C (dose: 200.0 mg/kg/injection, schedule: Q01DX009 (ip), vehicle: saline): 109 % of control

Oc1ccc2ccccc2c1N=Nc1ccc(F)cc1
T/C [15]: 100 % of control
T/C [16]: 100 % of control
T/C [17]: 104 % of control
